Consider 1 compound from US9040563B2, “Dual inhibitors of farnesyltransferase and geranylgeranyltransferase I” (H. Lee Moffitt Cancer Center and Research Institute, Inc., priority 2010, dated 2015).

Experiment [1] has as its system HPNE. The experiment in a line: MTT proliferation/viability assay. It is filed as cell-based, human. As to conditions: Homo sapiens, pancreas. How it is done:
(§1) To determine if FGTI-2734 is more efficacious than FT or GGT-1 inhibitors, 10 human cancer pancreatic cell lines, 2 human breast cancer cell lines, 2 human lung cancer cell lines and one human prostate cancer cell line were treated with these inhibitors and determined their effects on the proliferation of these cells by MTT assay.

Experiment [2] concerns Capan-2. As to the kind of experiment: MTT proliferation/viability assay. The class given is cell-based, human. The note with it: Homo sapiens, Capan-2, Capan-2, pancreas. As for the experimental part:
as §1

Experiment [3] relates to BxPC3. As to the kind of experiment: MTT proliferation/viability assay. It is filed as cell-based, human. As to conditions: Homo sapiens, BXPC-3, BxPC3, pancreas. How it is done: as §1
Experiment [4] has as its system Panc-1. As to the kind of experiment: MTT proliferation/viability assay. The class given is cell-based, human. The note with it: Homo sapiens, Panc-1, pancreas. As for the experimental part:
as §1

Experiment [5] deals with MCF-7. As to the kind of experiment: MTT proliferation/viability assay. The class given is cell-based, human. The note with it: Homo sapiens, MCF7, MCF-7, breast. As for the experimental part:
as §1

The test system of experiment [6] is HPDE-C7. The experiment in a line: MTT proliferation/viability assay. The note with it: Homo sapiens, HPDE-C7, pancreas. It is filed as cell-based, human. How it is done:
as §1

The test system of experiment [7] is HPNE-K-ras. The experiment in a line: MTT proliferation/viability assay. It is filed as cell-based, human. The note with it: Homo sapiens, pancreas. How it is done: as §1
Experiment [8] concerns HPDE-C7-Kras. As to the kind of experiment: MTT proliferation/viability assay. The class given is cell-based, human. The note with it: Homo sapiens, pancreas. As for the experimental part:
as §1

In experiment [9] the test system is DU-145. The experiment in a line: MTT proliferation/viability assay. It is filed as cell-based, human. How it is done: as §1
Experiment [10] has as its system ASPC-1. As to the kind of experiment: MTT proliferation/viability assay. The class given is cell-based, human. The note with it: Homo sapiens, ASPC1, ASPC-1, pancreas. How it is done: as §1
In experiment [11] the test system is A549. The experiment in a line: MTT proliferation/viability assay. The class given is cell-based, human. The note with it: Homo sapiens, A549, lung. How it is done: as §1
Experiment [12] deals with MiaPaca. The experiment in a line: MTT proliferation/viability assay. The class given is cell-based, human. As to conditions: Homo sapiens, MIA PaCa-2, pancreas. How it is done: as §1
Experiment [13] concerns SW1990. As to the kind of experiment: MTT proliferation/viability assay. The class given is cell-based, human. As to conditions: Homo sapiens, SW1990, SW1990, pancreas. How it is done: as §1
Experiment [14] concerns NCI-H460. The experiment in a line: MTT proliferation/viability assay. The class given is cell-based. As to conditions: Homo sapiens, NCI-H460, lung. As for the experimental part: as §1
Experiment [15] deals with Rap-1A geranylgeranylation. As to the kind of experiment: Western blot of Rap-1A geranylgeranylation/processing (antibody to un-geranylgeranylated Rap-1A) in treated cells. The class given is cell-based. The note with it: MiaPaca, MDA-MB-468 and MDA-MB-231 human cancer cells; FIG. 13. How it is done:
The ability of FGTI-2734 to inhibit HDJ-2 farnesylation and Rap-1A geranylgeranylation in human cancer cells was determined next. To this end, the MiaPaca pancreatic cancer cell line and 2 breast cancer cell lines (MDA-MB-468 and MDA-MB-231) were treated with various concentration of the dual inhibitor FGTI-2734, the GGT-1 inhibitor GGTI-2418 or the FT inhibitor FTI-2153 and processed for Western blotting.
Testing has shown that the dual farnesyltransferase and geranygeranyltransferase-I inhibitors are effective on pancreatic tumors (90% of all cases), colonic tumors (30% of all cases), lung tumors (30% of all cases), and breast tumors (10% of all cases). NIH-3T3 cells that overexpress oncogenic mutant K-Ras, seen in FIG. 14, and MDA-MB-231 breast cancer cells with a naturally occurring K-Ras mutation, seen in FIG. 15, were treated with indicated concentrations of FGTI-2734, GGTI-2417 or FTI-2153. FGTI-2734 but not FTI-2153 or GGTI-2417 inhibited K-Ras prenylation. As expected, GGTI-2417 inhibited the processing of Rap1 but not HDJ-2 whereas FTI-2153 inhibited the processing of HDJ-2 but not Rap1.
Mammalian target of rapamycin (mTOR) is a serine/threonine phosphatidylinositol 3-kinase-related kinase responsible for cell growth, proliferation, cell survival, protein synthesis, and transcription. Alteration of the mTOR pathway, either through activation of oncogenes or inactivation of tumor suppressors, disrupts a signaling equilibrium and causes malignant transformation. Studies have shown that phosphorylated S6 (pS6) is related to mTOR pathway alterations, and is useful in determining PI3K-based cancer therapies (Aziz, et al. Phosphatidylinositol-3-Kinase as a Therapeutic Target in Melanoma. Clin Cancer Res. 2009, 15; 3029-3036). Two breast adenocarcinoma and a pancreatic carcinoma cell line were treated with indicated concentrations of FGTI-2734, GGTI-2417 or FTI-2153. Protein extracts were run on a Western Blot using antibody against pS6 (ser240/244) (Cell Signaling Technology, Inc., Danvers, Mass.). […]

For `Cc1nc[nH]c1CN1CCN(C(=O)N[C@@H](CC(C)C)C(=O)O)[C@@H](Cc2ccccc2)C1=O` [GGTI-2418], the IC50 in experiment [1], in [2], in experiment [3], in [4], in experiment [5] and in experiment [6] was above 100 µM throughout. Besides, the IC50 in experiment [7] was above 100 µM; in experiment [8], above 100 µM; in experiment [9] (DU-145, prostate), above 50 µM; in [9] (Homo sapiens, DU-145, DU-145, prostate), above 100 µM; in experiment [10], above 100 µM; in experiment [11], above 100 µM. The half-maximal inhibitory concentration (IC50) in experiment [12], in experiment [13] and in experiment [14] was above 100 µM throughout. In addition, the “inhibition of Rap-1A geranylgeranylation” value in experiment [15] was “inhibited selectively”.
